Earlier results in PubChem BioAssay AID1259409 (Chemical Carcinogenesis Research Information System (CCRIS), 2018).

System: rodent chemically induced tumor inhibition, incidence and multiplicity
Assay: CCRIS tumor inhibitor studies
Conditions: Route [Inhibitor]: ORAL, Species: RAT, Promoter: NONE USED

O=C1O[C@H]([C@@H](O)CO)C(O)=C1O
tumour outcome (control, treated, inhibition, significance) (Carcinogen: N-ETHYL-N-(4-HYDROXYBUTYL)NITROSAMINE, 54897-62-0, Dose [Inhibitor]: 5% IN BASAL DIET ADMINISTERED SIMULTANEOUSLY WITH CARCINOGEN DOSE FOR 20 WK (STUDY DURATION: 20 WK), Strain/Sex: F344/MALE, Target Tissue: Type of Lesion: BLADDER: PAPILLOMA, Dose [Carcinogen]: 0.021% IN DRINKING WATER FOR 20 WK): 14/15 (93%), 12/15 (80%), 14%, not significant | tumour outcome (control, treated, inhibition, significance) (Carcinogen: N-METHYL-N-NITROSOUREA, 684-93-5, Dose [Inhibitor]: 0, 5% IN DIET BEGINNING POST CARCINOGEN TREATMENT AND CONTINUING FOR 23 WK (STUDY DURATION: 25 WK), Strain/Sex: F344/MALE, Target Tissue: Type of Lesion: FORESTOMACH: PAPILLOMA, Dose [Carcinogen]: 50 MG/KG 4/2 WK): 8/17 (47%), 7/20 (35%), 26%, not calculated | tumour outcome (control, treated, inhibition, significance) (Carcinogen: N-METHYL-N-NITROSOUREA, 684-93-5, Dose [Inhibitor]: 0, 5% IN DIET BEGINNING POST CARCINOGEN TREATMENT AND CONTINUING FOR 23 WK (STUDY DURATION: 25 WK), Strain/Sex: F344/MALE, Target Tissue: Type of Lesion: FORESTOMACH: SQUAMOUS CELL CARCINOMA, Dose [Carcinogen]: 50 MG/KG 4/2 WK): 2/17 (12%), 2/20 (10%), 17%, not calculated | tumour outcome (control, treated, inhibition, significance) (Carcinogen: N-METHYL-N-NITROSOUREA, 684-93-5, Dose [Inhibitor]: 0, 5% IN DIET BEGINNING POST CARCINOGEN TREATMENT AND CONTINUING FOR 23 WK (STUDY DURATION: 25 WK), Strain/Sex: F344/MALE, Target Tissue: Type of Lesion: HEMATOPOIETIC SYSTEM: LYMPHOMA OR LEUKEMIA, Dose [Carcinogen]: 50 MG/KG 4/2 WK): 3/17 (18%), 4/20 (20%), -11%, not calculated | tumour outcome (control, treated, inhibition, significance) (Carcinogen: N-METHYL-N-NITROSOUREA, 684-93-5, Dose [Inhibitor]: 0, 5% IN DIET BEGINNING POST CARCINOGEN TREATMENT AND CONTINUING FOR 23 WK (STUDY DURATION: 25 WK), Strain/Sex: F344/MALE, Target Tissue: Type of Lesion: SMALL INTESTINE: ADENOCARCINOMA, Dose [Carcinogen]: 50 MG/KG 4/2 WK): 9/17 (53%), 0/20 (0%), 100%, not calculated | tumour outcome (control, treated, inhibition, significance) (Carcinogen: N-METHYL-N-NITROSOUREA, 684-93-5, Dose [Inhibitor]: 0, 5% IN DIET BEGINNING POST CARCINOGEN TREATMENT AND CONTINUING FOR 23 WK (STUDY DURATION: 25 WK), Strain/Sex: F344/MALE, Target Tissue: Type of Lesion: SMALL INTESTINE: ADENOMA, Dose [Carcinogen]: 50 MG/KG 4/2 WK): 10/17 (59%), 16/20 (80%), -36%, not calculated | tumour outcome (control, treated, inhibition, significance) (Carcinogen: N-METHYL-N-NITROSOUREA, 684-93-5, Dose [Inhibitor]: 0, 5% IN DIET BEGINNING POST CARCINOGEN TREATMENT AND CONTINUING FOR 23 WK (STUDY DURATION: 25 WK), Strain/Sex: F344/MALE, Target Tissue: Type of Lesion: THYROID: ADENOCARCINOMA, Dose [Carcinogen]: 50 MG/KG 4/2 WK): 1/17 (6%), 0/20 (0%), 100%, not calculated | tumour outcome (control, treated, inhibition, significance) (Carcinogen: N-METHYL-N-NITROSOUREA, 684-93-5, Dose [Inhibitor]: 0, 5% IN DIET BEGINNING POST CARCINOGEN TREATMENT AND CONTINUING FOR 23 WK (STUDY DURATION: 25 WK), Strain/Sex: F344/MALE, Target Tissue: Type of Lesion: THYROID: ADENOMA, Dose [Carcinogen]: 50 MG/KG 4/2 WK): 3/17 (18%), 6/20 (30%), -67%, not calculated | tumour outcome (control, treated, inhibition, significance) (Carcinogen: N-METHYL-N-NITROSOUREA, 684-93-5, Dose [Inhibitor]: 0, 5% IN DIET BEGINNING POST CARCINOGEN TREATMENT AND CONTINUING FOR 23 WK (STUDY DURATION: 25 WK), Strain/Sex: F344/MALE, Target Tissue: Type of Lesion: TONGUE: PAPILLOMA, Dose [Carcinogen]: 50 MG/KG 4/2 WK): 2/17 (12%), 4/20 (20%), -67%, not calculated | tumour outcome (control, treated, inhibition, significance) (Carcinogen: N-METHYL-N-NITROSOUREA, 684-93-5, Dose [Inhibitor]: 0, 5% IN DIET BEGINNING POST CARCINOGEN TREATMENT AND CONTINUING FOR 23 WK (STUDY DURATION: 25 WK), Strain/Sex: F344/MALE, Target Tissue: Type of Lesion: TONGUE: SQUAMOUS CELL CARCINOMA, Dose [Carcinogen]: 50 MG/KG 4/2 WK): 2/17 (12%), 2/20 (10%), 17%, not calculated | tumour outcome (control, treated, inhibition, significance) (Carcinogen: N-METHYL-N-NITROSOUREA, 684-93-5, Dose [Inhibitor]: 0, 5% IN DIET BEGINNING POST CARCINOGEN TREATMENT AND CONTINUING FOR 23 WK (STUDY DURATION: 25 WK), Strain/Sex: F344/MALE, Target Tissue: Type of Lesion: URINARY BLADDER: PAPILLOMA, Dose [Carcinogen]: 50 MG/KG 4/2 WK): 2/17 (12%), 10/20 (50%), -316%, not calculated | outcome (Carcinogen: N-METHYL-N-NITROSOUREA, 684-93-5, Dose [Inhibitor]: 0, 5% IN DIET BEGINNING POST CARCINOGEN TREATMENT AND CONTINUING FOR 23 WK (STUDY DURATION: 25 WK), Strain/Sex: F344/MALE, Target Tissue: Type of Lesion: URINARY BLADDER: TRANSITIONAL CELL CARCINOMA, Dose [Carcinogen]: 50 MG/KG 4/2 WK): 0/17 (0%), 2/20 (10%), -100%, not calculated | tumour outcome (control, treated, inhibition, significance) (Carcinogen: N-METHYL-N-NITROSOUREA, 684-93-5, Dose [Inhibitor]: 1% IN 20% FAT DIET DAILY STARTING 2 WK BEFORE START OF CARCINOGEN TREATMENT AND CONTINUING FOR DURATION OF STUDY (STUDY, Strain/Sex: F344/FEMALE, Target Tissue: Type of Lesion: COLON: ADENOMA, ADENOCARCINOMA, Dose [Carcinogen]: 2 MG 2/WK FOR 2 WK): 42%, 46%, -10%, not significant
